Marks after values point to notes of the source that are not given here.
Legend:
IL-10 KO mice = assay: Colitis development in vitamin D deficient IL-10 KO mice, compound given in the diet; type: in vivo, mice (C57BL/6); conditions: 2-MP 720 ng/d; for Development of colitis symptoms (in words): IL-10 KO mice, 2-MD 0.12 ng/d in the diet; for Incidence (# with colitis/n): incidence defined as SI/BW % of greater than 6.5, vitamin D deficient for 5 weeks, then in the diet for the remainder of 9-10 weeks: 1,25(OH)2D3 5 ng/d; for Incidence (# with colitis/n) / SI/BW (small intestine weight / body weight, all mice in the group): 2-MD 0.12 ng/d; for SI/BW (small intestine weight / body weight, all mice in the group): wildtype C57BL/6 values are 5-6, in the diet: 1,25(OH)2D3 5 ng/d
Description: Recently a number of transgenic animals have been developed in which IBD symptoms occur spontaneously. One of the best animal models for Crohn's disease is the IL-10 knockout (KO) mouse (Kuhn et al. 1993, Mac Donald 1994). In conventional animal facilities, the IL-10 KO mice develop enterocolitis within 5-8 weeks of life (Kuhn et al. 1993). Approximately 30% of the IL-10 KO mice die following the development of severe anemia and weight loss (Kuhn et al. 1993). […] In addition mice raised in specific pathogen free facilities develop milder disease which doesn't result in the death of the mice (Kuhn et al. 1993). There are limitations involved in studying IL-10 KO mice as a model of IBD. If vitamin D is a regulator of IL-10 production then the results in this animal model may not represent […] what may happen in a “normal” immune response. However patients with Crohn's disease show similar symptoms, have depressed IL-10 production, and have been successfully treated with IL-10 (Narula et al. 1998).
(§1) Vitamin D deficient IL-10 KO mice were randomly distributed into one of 4 groups. Controls remained vitamin D deficient for the entire 9-10 weeks of the experiment. Mice treated with 1α,25-dihydroxyvitamin D3 (hereinafter “1,25(OH)2D3”) were vitamin D deficient for 5 weeks and then received 5 ng/d in the diet for the remainder of the experiment. 2-MP treated mice were vitamin D deficient for 5 weeks and then received 720 ng/d in the diet for the remainder of the experiment. 2-MD treated mice were vitamin D deficient for 5 weeks and then received 0.12 ng/d in the diet for the remainder of the experiment. VDR KO IL10KO mice were bred with VDR KO mice and the double IL10/VDR KO mice are compared here.

[1] = Serum calcium and body weight of treated vitamin D deficient IL-10 KO mice; type: in vivo, mice (C57BL/6); conditions: in the diet: 1,25(OH)2D3 5 ng/d, 2-MP 720 ng/d, 2-MD 0.12 ng/d
Description: as §1

IL-10 knock-out mice = conditions: cited from earlier work

| Compound | Development of colitis symptoms (in words) (IL-10 KO mice) | Incidence (# with colitis/n) (IL-10 KO mice) | SI/BW (small intestine weight / body weight, all mice in the group) (IL-10 KO mice) | BW (body weight) [1] | Serum Calcium [1] | Prevention of IBD (in words) (IL-10 knock-out mice) |
| --- | --- | --- | --- | --- | --- | --- |
| C=C1[C@H](O)CC(=C/C=C2\CCC[C@]3(C)C([C@@H](C)CCCC(C)(C)O)CC[C@@]23C)C[C@H]1O (stereo partly drawn) [2-MD, 2-methylene-19-nor-20(S)-1α,25-dihydroxyvitamin D3] | effective at inhibiting and/or preventing the development of colitis symptoms | 0/9^c | 5.3 ± 0.1^b % | 20.8 ± 1.0^c g |  |  |
| C=C1[C@H](O)CC(=C/C=C2\CCC[C@]3(C)C(C(C)C)CC[C@@]23C)C[C@H]1O (stereo partly drawn) [2-MP, 1α-hydroxy-2-methylene-19-nor-homopregnacalciferol] | effective at inhibiting and/or preventing the development of colitis symptoms | 0/8^c | 5.4 ± 0.3^b % | 20.2 ± 0.5^c g |  |  |
| C=C1/C(=C\C=C2/CCC[C@]3(C)[C@@H]([C@H](C)CCCC(C)(C)O)CC[C@@H]23)C[C@@H](O)C[C@@H]1O [1,25(OH)2D3, 1α,25-dihydroxyvitamin D3, reference compound] |  | 1/28^c | 5.8 ± 0.3^b % | 20.8 ± 0.5^c g | 8.9 ± 0.3^a mg % | can prevent IBD |
